Measurements taken from patent US12522582B2 (Gilead Sciences, Inc., priority 2022, dated 2026).
Read-outs that look alike come from different tables or passages of the source.

Columns and labels:
[1] = MT-4 CC50 Assay (CellTiter Glo); type: cell-based; details: human, MT-4 cells, luminescence, read-out: CC50-MT4
Method: Compounds were tested in 384-well plates: 18 compounds in duplex. Compounds were diluted in 7 points, 3-fold with DMSO by Bravo. Assay plate, which contains 20 uL medium with compounds, was seeded 2000 MT-4 cells in 20 uL/well by Multi-drop to start the assay. The plate was incubated at 37° C. for 5 days. On 6th day, the CellTiter Glo 40 uL was added in each well. Luminescence was read by Victor II.

HSV-2 virus (MS strain) = test: HSV-2 Cellomics Assay (immunofluorescence of HSV protein gD in infected ARPE-19 cells); details: Human alphaherpesvirus 2, ARPE-19, 16 h
Method: Compounds were tested for their ability to inhibit HSV-2 replication by monitoring the expression of the HSV protein gD using a high-throughput immunofluorescence-based assay. 10-dose, 3-fold serial dilutions of compounds were prepared at starting concentrations of 0.2 or 2 mM in 100% DMSO. […] The final starting concentration in the assay was either 1 or 10 μM. DMSO (no compound) and pritelivir were included on each microplate as negative and positive controls, respectively.
Prior to confluence, cells were transferred to a centrifuge tube and spun for 5 minutes at 1000 rpm. Cells were resuspended in assay medium (DMEM/F-12 Glutamax, 2% FBS, 1% Penicillin-Streptomycin) and counted. Cell density was adjusted to 150,000 cells/ml and infected with HSV-2 virus (MS strain, ATCC cat #VR-540) at a MOI of 0.06 in a 50 ml conical tube for 1 hour under constant rocking. Cells were then spun for 5 minutes at 1000 rpm and the media replaced with assay medium containing either 2% FBS or 10% human serum (EMD Millipore cat #S1-100 ML). 50 μl of the infection suspension were added into microplate wells that were pre-spotted with compounds (7,500 cells per well). Plates were incubated for 16 hours at 37° C.
After a 30-minute incubation at room temperature, plates were washed 4 times with 100 μl/well of PBS using a Biotek plate washer. […] Plates were washed 4 times again and 50 μl of DPBS were added to all wells prior to sealing the plates with a black adhesive seal. Fluorescence was measured on a Cellomics plate reader.
Data analysis was carried out using the Thermo Scientific HCS Studio software. Briefly, cells were identified using the DAPI nuclear stain and thresholds were set to filter cells out based on shape and size. A second threshold based on green fluorescence intensity (detection of HSV-2 gD) was set to identify HSV-2 infected cells. Data was reported as the average fluorescence intensity of HSV-2 infected cells.

[2] = read-out: EC50-HSV2-10% Human Serum

| SMILES | CC50 at 5 days [1] | EC50 (HSV-2 virus (MS strain); [2]) | EC50 (HSV-2 virus (MS strain); read-out: EC50-HSV2-FBS) |
| --- | --- | --- | --- |
| C[S@](=N)(=O)c1ccc2c(c1)N(C(=O)[C@@H]1Cc3ccc(-c4ccccn4)cc3C1)CC2 (single isomer, unassigned) [Example 33] | ≥ 50000 nM | 1370 nM | 165 nM |
| NS(=O)(=O)c1cc2c(cc1F)CCN2C(=O)C1Cc2ccc(-c3ccccn3)cc2C1 (stereo not drawn) [Example 8] | 42300 nM | 22700 nM | 9.9 nM |
| NS(=O)(=O)c1ccc2c(c1)N(C(=O)C1Cc3ccc(-c4cscn4)cc3C1)CC2 (stereo not drawn) [Example 19] | 37700 nM | ≥ 25000 nM | 23 nM |
| NS(=O)(=O)c1ccc2c(c1)N(C(=O)C1Cc3ccc(-c4cocn4)cc3C1)CC2 (stereo not drawn) [Example 23] | ≥ 50000 nM | 11000 nM | 19 nM |
| NS(=O)(=O)c1ccc2c(c1)N(C(=O)C1Cc3cc(-c4ccccn4)ccc3O1)CC2 (stereo not drawn) [Example 36] | ≥ 50000 nM | ≥ 25000 nM | 71 nM |
| NS(=O)(=O)c1cc2c(cc1F)CCN2C(=O)C1Cc2cc(-c3ccccn3)ccc2O1 (stereo not drawn) [Example 37] | ≥ 50000 nM | 19300 nM | 10 nM |
| C[C@@H]1Cc2cc(Br)c(S(N)(=O)=O)cc2N1C(=O)[C@@H]1Cc2ccc(-c3ccccn3)cc2C1 [Example 38, (R)-5-bromo-2-methyl-1-((R)-5-(pyridin-2-yl)-2,3-dihydro-1H-indene-2-carbonyl)indoline-6-sulfonamide] | ≥ 10000 nM | 543 nM | 19 nM |
| C[S@](=N)(=O)c1cc2c(cc1F)CCN2C(=O)[C@@H]1Cc2ccc(-c3ccccn3)cc2C1 [Example 41, (S)-(5-fluoro-1-((R)-5-(pyridin-2-yl)-2,3-dihydro-1H-indene-2-carbonyl)indolin-6-yl)(imino)(methyl)-16-sulfanone] | ≥ 10000 nM | 140 nM | 37 nM |
| C[C@@H]1[C@@H](C)c2cc(F)c(S(N)(=O)=O)cc2N1C(=O)[C@@H]1Cc2ccc(-c3ccccn3)cc2C1 [Example 46, (2R,3S)-5-fluoro-2,3-dimethyl-1-((R)-5-(pyridin-2-yl)-2,3-dihydro-1H-indene-2-carbonyl)indoline-6-sulfonamide] | ≥ 10000 nM | 143 nM | 16 nM |
| C[C@@H]1c2cc(F)c(S(N)(=O)=O)cc2N(C(=O)[C@@H]2Cc3ccc(-c4ccccn4)cc3C2)[C@@H]1C [Example 48, (2R,3R)-5-fluoro-2,3-dimethyl-1-((R)-5-(pyridin-2-yl)-2,3-dihydro-1H-indene-2-carbonyl)indoline-6-sulfonamide] | ≥ 10000 nM | 104 nM | 16 nM |
| C[C@@H]1Cc2cc(F)c(S(N)(=O)=O)cc2N1C(=O)[C@@H]1Cc2ccc(-c3cc(F)ccc3Cl)cc2C1 [Example 50, (R)-1-((R)-5-(2-chloro-5-fluorophenyl)-2,3-dihydro-1H-indene-2-carbonyl)-5-fluoro-2-methylindoline-6-sulfonamide] | ≥ 10000 nM | 214 nM | 61 nM |
| C[S@](=N)(=O)c1cc2c(cc1F)CCN2C(=O)[C@@H]1Cc2ccc(-c3cc(F)ccc3F)cc2C1 [Example 53] | ≥ 10000 nM | 415 nM | 48 nM |
| C[C@@H]1Cc2ccc(S(N)(=O)=O)cc2N1C(=O)C1Cc2cc(-c3ccccn3)ccc2O1 (stereo partly drawn) [Example 57] | ≥ 10000 nM | 381 nM | 35 nM |
| C[C@@H]1Cc2cc(F)c(S(N)(=O)=O)cc2N1C(=O)[C@@H]1Cc2ccc(-c3cc(F)cc(F)c3F)cc2C1 [Example 62, (R)-5-fluoro-2-methyl-1-((R)-5-(2,3,5-trifluorophenyl)-2,3-dihydro-1H-indene-2-carbonyl)indoline-6-sulfonamide] | ≥ 10000 nM | 318 nM | 59 nM |
| Cc1cc2c(cc1S(N)(=O)=O)N(C(=O)[C@@H]1Cc3ccc(-c4ccccn4)cc3C1)[C@H](C)C2 [Example 63, (R)-2,5-dimethyl-1-((R)-5-(pyridin-2-yl)-2,3-dihydro-1H-indene-2-carbonyl)indoline-6-sulfonamide] | ≥ 10000 nM | 912 nM | 25 nM |
| NS(=O)(=O)c1ccc2c(c1)N(C(=O)[C@@H]1Cc3ccc(-c4ccccn4)cc3C1)CC21CC1 [Example 64, (R)-1′-(5-(pyridin-2-yl)-2,3-dihydro-1H-indene-2-carbonyl)spiro[cyclopropane-1,3′-indoline]-6′-sulfonamide] | ≥ 10000 nM | ≥ 10000 nM | 115 nM |
| CC[C@@H]1Cc2ccc(S(N)(=O)=O)cc2N1C(=O)[C@@H]1Cc2ccc(-c3ccccn3)cc2C1 [Example 68, (R)-2-ethyl-1-((R)-5-(pyridin-2-yl)-2,3-dihydro-1H-indene-2-carbonyl)indoline-6-sulfonamide] | ≥ 10000 nM | 233 nM | 31 nM |

| SMILES | CC50 at 5 days [1] | EC50 (HSV-2 virus (MS strain); [2]) | EC50 (HSV-2 virus (MS strain); read-out: EC50-HSV2-FBS) |
| --- | --- | --- | --- |
| NS(=O)(=O)c1ccc2c(c1)N(C(=O)C1Cc3ccc(-n4cccn4)cc3C1)CC2 (stereo not drawn) [Example 78, 1-(5-(1H-pyrazol-1-yl)-2,3-dihydro-1H-indene-2-carbonyl)indoline-6-sulfonamide] | ≥ 50000 nM | 20700 nM | 65 nM |
| CC1CN(C(=O)[C@@H]2Cc3cc(-c4ccccn4)ccc3[C@H]2C)c2cc(S(N)(=O)=O)ccc21 (stereo partly drawn) [Example 101, 3-methyl-1-((1S,2R)-1-methyl-5-(pyridin-2-yl)-2,3-dihydro-1H-indene-2-carbonyl)indoline-6-sulfonamide] | – | – | 6760 nM |
| CC1CN(C(=O)[C@H]2Cc3cc(-c4ccccn4)ccc3[C@@H]2C)c2cc(S(N)(=O)=O)ccc21 (stereo partly drawn) [Example 102, 3-methyl-1-((1R,2S)-1-methyl-5-(pyridin-2-yl)-2,3-dihydro-1H-indene-2-carbonyl) indoline-6-sulfonamide] | – | 905 nM | 160 nM |
| C[C@H]1CN(C(=O)[C@@H]2Cc3ccc(-c4ccccn4)cc3C2)c2cc(S(N)(=O)=O)ccc21 [Example 107, (R)-3-methyl-1-((R)-5-(pyridin-2-yl)-2,3-dihydro-1H-indene-2-carbonyl)indoline-6-sulfonamide] | – | ≥ 25000 nM | 95 nM |
| C[C@@H]1CN(C(=O)[C@@H]2Cc3ccc(-c4ccccn4)cc3C2)c2cc(S(N)(=O)=O)ccc21 [Example 108, (S)-3-methyl-1-((R)-5-(pyridin-2-yl)-2,3-dihydro-1H-indene-2-carbonyl)indoline-6-sulfonamide] | – | – | 285 nM |
| CC1(C)CN(C(=O)C2Cc3ccc(-c4ccccn4)cc3C2)c2cc(S(N)(=O)=O)ccc21 (stereo not drawn) [Example 109] | – | – | 390 nM |
| NS(=O)(=O)c1cc2c(cc1Br)CCN2C(=O)C1Cc2ccc(-c3ccccn3)cc2C1 (stereo not drawn) [Example 110, 5-Bromo-1-(5-(pyridin-2-yl)-2,3-dihydro-1H-indene-2-carbonyl)indoline-6-sulfonamide] | – | ≥ 25000 nM | 26 nM |
| COc1cc2c(cc1S(N)(=O)=O)N(C(=O)C1Cc3ccc(-c4ccccn4)cc3C1)CC2 (stereo not drawn) [Example 111, 5-Methoxy-1-[5-(2-pyridyl)indane-2-carbonyl]indoline-6-sulfonamide] | – | ≥ 25000 nM | 1740 nM |
| CC[C@H]1Cc2cc(F)c(S(N)(=O)=O)cc2N1C(=O)[C@@H]1Cc2ccc(-c3ccccn3)cc2C1 [Example 114] | – | 926 nM | 128 nM |
| NS(=O)(=O)c1ccc2c(c1)N(C(=O)C1Cc3ccc(-c4ccccn4)cc3O1)CC2 (stereo not drawn) [Example 115, 1-(6-(pyridin-2-yl)-2,3-dihydrobenzofuran-2-carbonyl)indoline-6-sulfonamide] | – | 1640 nM | 99 nM |
| NS(=O)(=O)c1ccc2c(c1)N(C(=O)[C@@H]1Cc3ccc(-c4ncccn4)cc3C1)CC2 [Example 133, (R)-1-(5-(pyrimidin-2-yl)-2,3-dihydro-1H-indene-2-carbonyl)indoline-6-sulfonamide] | – | 6130 nM | 102 nM |
| NS(=O)(=O)c1ccc2c(c1)N(C(=O)[C@@H]1Cc3ccc(-c4cccc5ccccc45)cc3C1)CC2 [Example 134, (R)-1-(5-(naphthalen-1-yl)-2,3-dihydro-1H-indene-2-carbonyl)indoline-6-sulfonamide] | – | 3100 nM | 231 nM |
| C[C@@H]1CN(C(=O)[C@H]2Cc3cc(-c4ccccn4)c(F)cc3O2)c2cc(S(N)(=O)=O)c(F)cc21 [Example 136, (S)-5-fluoro-1-((R)-6-fluoro-5-(pyridin-2-yl)-2,3-dihydrobenzofuran-2-carbonyl)-3-methylindoline-6-sulfonamide] | – | 2220 nM | 89.6 nM |
| C[C@H]1CN(C(=O)[C@H]2Cc3cc(-c4ccccn4)c(F)cc3O2)c2cc(S(N)(=O)=O)c(F)cc21 [Example 137, (R)-5-fluoro-1-((R)-6-fluoro-5-(pyridin-2-yl)-2,3-dihydrobenzofuran-2-carbonyl)-3-methylindoline-6-sulfonamide] | – | 538 nM | 129 nM |
| C[C@H]1c2ccc(-c3ccccn3)cc2C[C@@H]1C(=O)N1C[C@H](C(F)(F)F)c2cc(F)c(S(N)(=O)=O)cc21 [Example 139, (R)-5-fluoro-1-((1R,2S)-1-methyl-5-(pyridin-2-yl)-2,3-dihydro-1H-indene-2-carbonyl)-3-(trifluoromethyl)indoline-6-sulfonamide] | – | 1710 nM | 74.2 nM |
| C[C@@H]1Cc2cc(F)c(S(N)(=O)=O)cc2N1C(=O)[C@H]1Cc2ccc(-c3ccccn3)cc2C1 [Example 141, (R)-5-fluoro-2-methyl-1-((S)-5-(pyridin-2-yl)-2,3-dihydro-1H-indene-2-carbonyl)indoline-6-sulfonamide] | – | 2630 nM | 293 nM |
